Experimental data published in PubChem BioAssay (NCI).
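Dose response: 5 concentrations. Exposure: 48 h. Format: 96-well plates. Endpoint: linear interpolation; highest concentration if not reached. At the GI50, growth is halved. The concentration for full growth arrest is given as TGI.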

Columns and labels:
Assay in all cases: NCI tumour cell line growth inhibition, 48 h
786-0 renal = system: 786-0 renal
A498 renal = system: A498 renal
A549 NSCLC = system: A549 NSCLC
ACHN renal = system: ACHN renal
BT-549 breast = system: BT-549 breast
CAKI-1 renal = system: CAKI-1 renal
CCRF-CEM leukemia = system: CCRF-CEM leukemia
COLO 205 colon = system: COLO 205 colon
DU-145 prostate = system: DU-145 prostate
EKVX NSCLC = system: EKVX NSCLC
HCC-2998 colon = system: HCC-2998 colon
HCT-116 colon = system: HCT-116 colon
HCT-15 colon = system: HCT-15 colon
HL-60(TB) leukemia = system: HL-60(TB) leukemia
HOP-62 NSCLC = system: HOP-62 NSCLC
HOP-92 NSCLC = system: HOP-92 NSCLC
HS 578T breast = system: HS 578T breast
HT29 colon = system: HT29 colon
IGROV1 ovarian = system: IGROV1 ovarian
K-562 leukemia = system: K-562 leukemia
KM12 colon = system: KM12 colon
LOX IMVI melanoma = system: LOX IMVI melanoma
M14 melanoma = system: M14 melanoma
MALME-3M melanoma = system: MALME-3M melanoma
MCF7 breast = system: MCF7 breast
MDA-MB-231 breast = system: MDA-MB-231 breast
MDA-MB-435 = system: MDA-MB-435
MOLT-4 leukemia = system: MOLT-4 leukemia
NCI-H226 lung = system: NCI-H226 lung

SMILES: Clc1ccccc1CNc1c2ccccc2nc2ccccc12
- GI50 (786-0 renal): 2.72 µM
- TGI (786-0 renal): 11 µM
- GI50 (A498 renal): 1.75 µM
- TGI (A498 renal): 6.94 µM
- GI50 (A549 NSCLC): 2.21 µM
- TGI (A549 NSCLC): 10.7 µM
- GI50 (ACHN renal): 1.76 µM
- TGI (ACHN renal): 6.89 µM
- GI50 (BT-549 breast): 4.17 µM
- TGI (BT-549 breast): 12 µM
- GI50 (CAKI-1 renal): 2.11 µM
- TGI (CAKI-1 renal): 8.08 µM
- GI50 (CCRF-CEM leukemia): 2.74 µM
- TGI (CCRF-CEM leukemia): 50 µM
- GI50 (COLO 205 colon): 1.6 µM
- TGI (COLO 205 colon): 6.16 µM
- GI50 (DU-145 prostate): 2.45 µM
- TGI (DU-145 prostate): 8.58 µM
- GI50 (EKVX NSCLC): 2.77 µM
- TGI (EKVX NSCLC): 9.85 µM
- GI50 (HCC-2998 colon): 1.5 µM
- TGI (HCC-2998 colon): 5.57 µM
- GI50 (HCT-116 colon): 1.65 µM
- TGI (HCT-116 colon): 8.1 µM
- GI50 (HCT-15 colon): 1.69 µM
- TGI (HCT-15 colon): 6.85 µM
- GI50 (HL-60(TB) leukemia): 2.05 µM
- TGI (HL-60(TB) leukemia): 9.71 µM
- GI50 (HOP-62 NSCLC): 3.62 µM
- TGI (HOP-62 NSCLC): 12.8 µM
- GI50 (HOP-92 NSCLC): 1.91 µM
- TGI (HOP-92 NSCLC): 8.45 µM
- GI50 (HS 578T breast): 5.97 µM
- TGI (HS 578T breast): 18.1 µM
- GI50 (HT29 colon): 1.67 µM
- TGI (HT29 colon): 9.02 µM
- GI50 (IGROV1 ovarian): 1.88 µM
- TGI (IGROV1 ovarian): 8.83 µM
- GI50 (K-562 leukemia): 1.48 µM
- TGI (K-562 leukemia): 41.7 µM
- GI50 (KM12 colon): 2.03 µM
- TGI (KM12 colon): 8.28 µM
- GI50 (LOX IMVI melanoma): 1.57 µM
- TGI (LOX IMVI melanoma): 5.93 µM
- GI50 (M14 melanoma): 2.04 µM
- TGI (M14 melanoma): 9.98 µM
- GI50 (MALME-3M melanoma): 2.71 µM
- TGI (MALME-3M melanoma): 9.1 µM
- GI50 (MCF7 breast): 1.27 µM
- TGI (MCF7 breast): 5.63 µM
- GI50 (MDA-MB-231 breast): 2.39 µM
- TGI (MDA-MB-231 breast): 10.2 µM
- GI50 (MDA-MB-435): 1.96 µM
- TGI (MDA-MB-435): 8.14 µM
- GI50 (MOLT-4 leukemia): 1.84 µM
- TGI (MOLT-4 leukemia): 16.3 µM
- GI50 (NCI-H226 lung): 2.22 µM
